Reference: patent US20210186934A1, “COMPOSITIONS AND USES THEREOF” (LIVERPOOL JOHN MOORES UNIVERSITY, priority 2018, published 2021)

Tests used:
Format in all cases: cell-based, human
ORAI1 = ORAI1 expression in HPEK; conditions: data not shown
Source text: To determine whether Ca^2+-dependent induction of miR-184 was associated with SOCE, HPEK were maintained in high Ca^2+ for 5 days in the presence of the SOCE blocker gadolinium (III) Gd^3+ or the pharmacologic ORAI1 inhibitor BTP2. Alternatively, ORAI1 expression was ablated using short-interfering RNA (siRNA) that was transferred into the cells using nucleofection 1 d prior to Ca^2+ elevation.

miR-184 [1] = assay: miR-184 induction in scratched HPEK monolayers; conditions: low Ca2+ (0.07 mM), 5 days
Method: (§1) FIG. 6: Induction of miR-184 in scratched monolayers. Confluent HPEK monolayers were scratched and cells harvested after 5 days in low (0.07 mM) or high (1.5 mM) Ca^2+ media as indicated. The SOCE blockers Gd^3+ and BTP2 and were added 1 h after scratching and refreshed after day 2. (a-d) miR-184 expression normalized to SNORD72. (c-d) LncRNA UCA1 expression normalised to GAPDH; and
(§2) Total RNA was isolated from cells using the AllPrep DNA/RNA/miRNA Universal kit (Qiagen, Manchester, UK). RNA concentration was determined using a NanoDrop™ 2000c. Complementary DNA (cDNA) was synthesised from 400 ng of RNA using the miScript II RT kit (Qiagen) with HiFlex buffer. PCR amplifications were performed with Quantifast SYBR Green and QuantiTect miRNA/universal primers or RT^2 mRNA primer assays, all from Qiagen. […] Relative expression of miRNA and mRNA determined using the 2^−ΔΔCT relative quantification method (Livak and Schmittgen, 2001).
The inventors maintained the HPEK in low Ca^2+ (0.07 mM) medium and allowed them to approach confluence in 6-well plates prior to wounding. Cells were harvested 5 days later and miR-184 expression assessed as described above. […] In contrast, when extracellular Ca^2+ was raised to 1.5 mM to 5 days to evoke HPEK differentiation, only a relatively modest 10-fold rise in miR-184 expression was detected (FIG. 6d). […]

UCA1 = assay: LncRNA UCA1 induction in scratched HPEK monolayers; conditions: 5 days
Method: as §1
(§3) Total RNA was isolated from cells using the AllPrep DNA/RNA/miRNA Universal kit (Qiagen, Manchester, UK). RNA concentration was determined using a NanoDrop™ 2000c. Complementary DNA (cDNA) was synthesised from 400 ng of RNA using the miScript II RT kit (Qiagen) with HiFlex buffer. PCR amplifications were performed with Quantifast SYBR Green and QuantiTect miRNA/universal primers or RT^2 mRNA primer assays, all from Qiagen. Thermocycling was performed on a Rotor-Gene® as follows: 95° C. for 15 min, followed by 40 cycles of 94° C. for 15 s, 55° C. for 30 s and 70° C. for 30 s. Relative expression of miRNA and mRNA determined using the 2^−ΔΔCT relative quantification method (Livak and Schmittgen, 2001).
The long non-coding RNA UCA1 (urothelial carcinoma associated 1) has been identified as a competing endogenous RNA (ceRNA) with four predicted miR-184-binding sites (Zhou et al., 2017). The expression of UCA1 in the HPEK was therefore examined. […]

miR-184 [2] = assay: Induction of miR-184 in HPEK by differentiation agents (sqRT-PCR); conditions: 1 or 5 days
Method: FIG. 1: Induction of miR-184 during Ca^2+-dependent HPEK differentiation. […] Data shown represent means +SEM from 3 independent experiments. Expression was normalized to SNORD72 for miR-184 and GAPDH for IVL. Values are presented relative to 0.07 mM Ca^2+ or DMSO-treated controls;
Human progenitor epidermal keratinocytes (HPEK) were isolated from human foreskin or purchased from CellnTec (Bern, Switzerland). For isolation, tissues were washed with phosphate-buffered saline, trimmed of any subcutaneous fat, connective tissues and blood vessels before digestion with 20 mg/ml dispase (Sigma) at 4° C. overnight with further digestion for 1 hour at room temperature. Thereafter, the epidermis was separated and incubated in 0.5% TrpLE (Thermofisher scientific, Cheshire, UK) for 5 min at 37° C., 5% CO2. Keratinocytes were centrifuged (1200 rpm for 5 min) and re-suspended in CnT-Prime (CellnTec) supplemented with 1% penicillin/streptomycin/amphotericin B (PSA) and IsoBoost supplement CnT-ISO (CellnTec) to enhance isolation efficiency. Culture medium was changed every 2-3 days until cells reached 80% confluence with PSA exclusion from the culture medium after the first passage. Keratinocytes were sub-cultured using CnT-Accutase (CellnTec) and re-cultured at 4×10^3 cells per cm^2. For differentiation, keratinocytes were at 3×10^5/well of a 6-well plate in CnT-Prime and allowed to reach confluence before adjusting the medium to 1.5 mM calcium using CaCl2.
as §3
(§4) Expression of miR-184 in HPEK was evaluated and maintained in parallel cultures under low (0.07 mM) to sustain proliferation or high (1.5 mM) extracellular Ca^2+ to promote differentiation.

involucrin (IVL) = assay: IVL expression in HPEK treated with differentiation agents (sqRT-PCR); conditions: 100 nM, 5 d, normalized to GAPDH
Method: FIG. 1: Induction of miR-184 during Ca^2+-dependent HPEK differentiation. (a) HPEKs grown to confluence were treated with high (1.5 mM) Ca^2+, 100 nM 1,25(OH)D3, 100 nM PMA or dimethyl sulfoxide (DMSO) vehicle for 1 or 5 days (d). (b) Upregulation of the HPEK differentiation marker involucrin (IVL) during 5 d exposure to 1.5 mM Ca^2+, 100 nM 1,25(OH)D3 or 100 nM PMA. Data shown represent means +SEM from 3 independent experiments. Expression was normalized to SNORD72 for miR-184 and GAPDH for IVL. Values are presented relative to 0.07 mM Ca^2+ or DMSO-treated controls;
Human progenitor epidermal keratinocytes (HPEK) were isolated from human foreskin or purchased from CellnTec (Bern, Switzerland). […]
as §2, with “Complementary DNA (cDNA) was synthesised from 400 ng of RNA using the miScript II RT kit (Qiagen) with HiFlex buffer.” left out
as §4

## Cc1nnsc1C(=O)Nc1ccc(-n2nc(C(F)(F)F)cc2C(F)(F)F)cc1 [BTP2]
ORAI1
  effect on ORAI1 expression: little effect on ORAI1 expression
miR-184 [1]
  effect on scratch-evoked induction of miR-184: abolished the induction of miR-184
UCA1
  reduction of UCA1 induction: around 50%

## CCCCCCCCCCCCCC(=O)O[C@@H]1[C@@H](C)[C@@]2(O)[C@@H](C=C(CO)C[C@]3(O)C(=O)C(C)=C[C@@H]23)[C@@H]2C(C)(C)[C@]12OC(C)=O [PMA, phorbol 12-myristate 13-acetate]
miR-184 [2]; 100 nM, vs DMSO
  effect on miR-184 expression: did not promote miR-184 expression
miR-184 [2]; 100 nM, vs DMSO, listed as phorbol ester
  effect on miR-184 expression: neither phorbol ester nor 1, 25-dihydroxyvitamin D3 had any effect
Involucrin (IVL)
  IVL expression: evoked robust IVL expression

## C=C1/C(=C\C=C2/CCC[C@]3(C)[C@@H]([C@H](C)CCCC(C)(C)O)CC[C@@H]23)C[C@@H](O)C[C@@H]1O [1, 25-(OH)2D3, 1, 25-dihydroxyvitamin D3]
miR-184 [2]; 100 nM, vs DMSO
  effect on miR-184 expression: did not promote miR-184 expression
miR-184 [2]; 100 nM, vs DMSO, listed as 1, 25-dihydroxyvitamin D3
  effect on miR-184 expression: neither phorbol ester nor 1, 25-dihydroxyvitamin D3 had any effect
Involucrin (IVL)
  IVL expression: evoked robust IVL expression

## IFNγ: Interferon gamma, reported to trigger keratinocyte differentiation
miR-184 [2]; 10 ng/ml, data not shown
  effect on miR-184 expression: no induction of miR-184 was observed

## [Cl][Gd]([Cl])[Cl] [Gd^3+, Gadolinium(III) chloride]
ORAI1
  effect on ORAI1 expression: little effect on ORAI1 expression
miR-184 [1]
  effect on scratch-evoked induction of miR-184: abolished the induction of miR-184
UCA1
  reduction of UCA1 induction: around 50%
